Results as given in article PMC12196235, “Enhancing the Pharmacological Properties of Triterpenes Through Acetylation: An Anticancer and Antioxidant Perspective” (Molecules, 2025).
Where two headings read alike, the source gives them in different places.

Tests used:
[1] = system: SW-707 (human colon carcinoma); settings: ref 49, cited from earlier work
[2] = system: RPMI-8226 (human multiple myeloma); settings: ref 47; read-out: anticancer IC50 (RPMI-8226); cited from earlier work
[3] = system: A-549 (human lung carcinoma); test: MTT assay, A-549; format: cell-based
Procedure, shortened: (§1)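 Cells cultured at 37 °C in serum-supplemented medium (10% FBS, 1% L-glutamine, 1% pen/strep): HeLa in DMEM, MCF-7 and A-549 in RPMI 1640, HDF in fibroblast basal medium. Compound effects were then assessed by MTT assay.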

[4] = system: HeLa, KB, MCF-7, A-549, PC-3 and SKOV-3; test: MTT assay, summary over the cancer cell lines; format: cell-based, human; settings: classification by IC50 (good ≤ 10 μM, moderate 10–30 μM, ref 83)
Procedure, shortened: as §1

[5] = system: SK-N-AS (human neuroblastoma); settings: ref 47; read-out: anticancer IC50 (SK-N-AS); cited from earlier work
[6] = system: HT-29 (human colorectal adenocarcinoma); settings: ref 47; read-out: anticancer IC50 (HT-29); cited from earlier work
PC-3 = test: Apoptosis assay (Cell Death Detection ELISA Plus), PC-3; format: cell-based, human; settings: PC-3, 4 h incubation, enrichment of mono- and oligonucleosomes vs negative control
Method: The induction of apoptosis by tested compounds was determined with Cell Death Detection ELISA Plus from Roche Diagnostics GmbH (Mannheim, Germany).
Cell Death Detection ELISA Plus is an enzyme immunoassay for determining cytoplasmic histone-associated DNA fragments (mono- and […]) after induced cell death. Cells (10^4) were pipetted into wells of 96-well plates, and test compounds were added at final concentrations of 0.1, 1.0 and 10.0 µg × mL^−1. Cells incubated in the absence of test compounds served as negative controls. After 4 h of incubation, cells were harvested by centrifugation of the plates for 10 min at 200× g. Supernatants were removed carefully, and cell pellets were resuspended in 200 µL of cell lysis buffer and incubated for 30 min at room temperature. After centrifugation of the plates (10 min at 200× g), 20 µL of cell lysates was transferred in duplicate into wells of provided streptavidin-coated microplates. Then, 80 µL of the immunoreagent containing a mixture of anti-histone-biotin monoclonal antibody and anti-DNA-peroxidase monoclonal antibody was added to each well. The microplates were covered with a provided adhesive foil and incubated for 2 h at room temperature. Thereafter, the solution in the wells was removed by tapping the microplate. The wells were rinsed three times with incubation buffer, and 100 µL of substrate (2,2′-azino-bis [3-ethylbenzothiazoline-6-sulphonic acid], ABTS) was added to each well. After 10–20 min, 100 µL of ABTS stop solution was pipetted to each well, and the absorbance was read at 405 nm (test wavelength) and 490 nm (reference wavelength). The apoptotic index was calculated based on the enrichment of mono- and oligonucleosomes according to the following equation:apoptotic index = [{A405(sample) − A490(sample)}/{A405(negative control) − A490(negative control)}]

[7] = system: Jurkat 1E.6 (human T cell leukemia); settings: ref 47; read-out: anticancer IC50 (Jurkat 1E.6); cited from earlier work
[8] = system: SKOV-3 (human ovarian carcinoma); test: MTT assay, SKOV-3; format: cell-based
[9] = system: KB (human oral squamous carcinoma); test: MTT assay, KB; format: cell-based
[10] = system: HPCC (human cervical carcinoma); settings: ref 47; read-out: anticancer IC50 (HPCC); cited from earlier work
[11] = system: SGC7901 (human gastric carcinoma); settings: ref 48, cited from earlier work
[12] = system: T-47D (human breast carcinoma); settings: cited from earlier work; for IC50: read-out: anticancer IC50 (T-47D)
[13] = system: P-388 (murine lymphocytic leukemia); settings: ref 49, cited from earlier work
[14] = system: PC-3 (human prostate carcinoma); test: MTT assay, PC-3; format: cell-based

C=C(C)[C@@H]1CC[C@]2(CO)CC[C@]3(C)[C@H](CC[C@@H]4[C@@]5(C)CC[C@H](O)C(C)(C)[C@@H]5CC[C@]43C)[C@@H]12 [5a, betulin]
anticancer IC50 (SW-707) [1]: 22.9 µg/mL
IC50 ([1]; read-out: anticancer IC50 (SW-707)): 51.7 µM
IC50 [2]: 6.4 µM
IC50 ([3]; Homo sapiens, A549, MTT assay, A-549, read-out: IC50 (±SD), A-549): 19.6 µM
Selectivity index (SI), A-549 ([3]; IC50 HDF / IC50 A-549): 0.81
cytotoxic activity class [4]: high or moderately high activity
IC50 [5]: 2.5 µM
IC50 [6]: 4.3 µM
Apoptotic index (AI), PC-3 (PC-3): 5.82 (0.03)
IC50 [7]: 6.7 µM
IC50 ([8]; Homo sapiens, SK-OV-3, MTT assay, SKOV-3, read-out: IC50 (±SD), SKOV-3): 6.95 µM
Selectivity index (SI), SKOV-3 ([8]; IC50 HDF / IC50 SKOV-3): 2.27
IC50 ([9]; Homo sapiens, MTT assay, KB): 19.7 µM
Selectivity index (SI), KB ([9]; IC50 HDF / IC50 KB): 0.80
IC50 [10]: 3.4 µM
anticancer IC50 (SGC7901) [11]: 13 µg/mL
IC50 ([11]; read-out: anticancer IC50 (SGC7901)): 29.4 µM
IC50 ([12]; ref 47): 5.2 µM
anticancer IC50 (T-47D) ([12]; ref 49): 32.4 µg/mL
IC50 ([12]; ref 49): 73.2 µM
anticancer IC50 (P-388) [13]: 5.5 µg/mL
IC50 ([13]; read-out: anticancer IC50 (P-388)): 12.4 µM
IC50 ([14]; Homo sapiens, MTT assay, PC-3, read-out: IC50 (±SD), PC-3): 6.22 µM
Selectivity index (SI), PC-3 ([14]; IC50 HDF / IC50 PC-3): 2.54
